According to ChEMBL document CHEMBL4610062, “Cytotoxic and non-cytotoxic cardiac glycosides isolated from the combined flowers, leaves, and twigs of Streblus asper” (Bioorg Med Chem, 2020):

Key:
[1] = system: HT-29; experiment: Cytotoxicity against human HT-29 cells assessed as inhibition of cell viability incubated for 72 hrs by MTS assay; assay type: functional, cell-based; conditions: HT-29, 72 h
[2] = Cytotoxicity against human MDA-MB-435 cells assessed as inhibition of cell viability incubated for 72 hrs by MTS assay
[3] = system: OVCAR-3; experiment: Cytotoxicity against human OVCAR3 cells assessed as inhibition of cell viability incubated for 72 hrs by MTS assay; assay type: functional, cell-based; conditions: OVCAR-3, 72 h
[4] = Inhibition of Sodium/potassium-transporting ATPase in porcine cerebral cortex using ATP as substrate incubated for 15 mins by ADP-Glo Max Assay; design: species or system Sus scrofa

Compound CO[C@H]1[C@H](O[C@H]2CC[C@]3(C=O)[C@H]4CC[C@]5(C)[C@](O)(C6=CC(=O)OC6)CC[C@]5(O)[C@@H]4CC[C@]3(O)C2)O[C@H](C)[C@H](O)[C@@H]1OC has an IC50 [1] of over 20 µM, an IC50 [2] of over 20 µM and an IC50 [3] of over 20 µM. For the same compound, the IC50 [4] was 232 µM.
For CO[C@H]1[C@H](O[C@H]2CC[C@]3(C=O)[C@H]4CC[C@]5(C)[C@@H]6CC[C@]5(O[C@H]5OC(=O)C[C@H]56)[C@@H]4CC[C@]3(O)C2)O[C@H](C)[C@H](O)[C@@H]1OC, the IC50 [1] was over 20 µM, the IC50 [2] was over 20 µM and the IC50 [3] was over 20 µM.
With C[C@H]1O[C@@H](O[C@H]2[C@@H](O)C[C@H](O[C@H]3[C@@H](O)C[C@H](O[C@H]4CC[C@@]5(C)[C@H](CC[C@@H]6[C@@H]5CC[C@]5(C)[C@@H](C7=CC(=O)OC7)CC[C@]65O)C4)O[C@@H]3C)O[C@@H]2C)C[C@H](O)[C@@H]1O [DIGITOXIN] the IC50 [4] was 0.127 µM.
CC(=O)O[C@H]1C(=O)[C@@]2(C)[C@H]([C@H](OC(=O)c3ccccc3)[C@]3(O)C[C@H](OC(=O)[C@H](O)[C@@H](NC(=O)c4ccccc4)c4ccccc4)C(C)=C1C3(C)C)[C@]1(OC(C)=O)CO[C@@H]1C[C@@H]2O [PACLITAXEL] showed an IC50 [2] of 0.0015 µM.
